Source: the supplement of paper PMC10307832

Legend:
Assay in all cases: relative viability (nuclei count vs DMSO), 5 days (fraction); higher = more cells survive
[1] = system: HARA
How it was run: (§1)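 Lung cancer cell lines in 1536-well plates were dosed by pin tool the day after seeding, either with one drug alone or with a fixed anchor-drug dose plus five library-drug doses (not always all listed) in √10 steps. After 5 days, cells were fixed and their nuclei stained in one step (final 0.05% Triton X-100, 1% formaldehyde, 1 ug/ml Hoechst), then counted on 4× images. Relative viability is the nuclei count in treated wells divided by that in vehicle wells. Values are medians of duplicate plates.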

[2] = system: NCI-H647
How it was run: as §1

[3] = system: SW 900
How it was run: as §1

[4] = system: A-427
How it was run: as §1

[5] = system: NCI-H1993
How it was run: as §1

[6] = system: EPLC-272H
How it was run: as §1

[7] = system: NCI-H1734
How it was run: as §1

[8] = system: NCI-H358
How it was run: as §1

[9] = system: NCI-H522
How it was run: as §1

[10] = system: LK-2
How it was run: as §1

[11] = system: RERF-LC-KJ
How it was run: as §1

[12] = system: NCI-H2405
How it was run: as §1

[13] = system: NCI-H460
How it was run: as §1

[14] = system: NCI-H1755
How it was run: as §1

[15] = system: EMC-BAC-2
How it was run: as §1

[16] = system: NCI-H1650
How it was run: as §1

[17] = system: COR-L 105
How it was run: as §1

[18] = system: HCC-44
How it was run: as §1

[19] = system: NCI-H596
How it was run: as §1

[20] = system: LU99A
How it was run: as §1

[21] = system: EKVX
How it was run: as §1

[22] = system: ChaGo-K-1
How it was run: as §1

`CCNC(=O)c1noc(-c2cc(C(C)C)c(O)cc2O)c1-c1ccc(CN2CCOCC2)cc1` [Luminespib] + Cc1cc(Nc2cc(N3CCN(C)CC3)nc(Sc3ccc(NC(=O)C4CC4)cc3)n2)n[nH]1 [Tozasertib] (partner 0.1 µM) gave a relative viability ([1]; first compound 0.002 µM) of 0.158, a relative viability ([1]; first compound 0.006325 µM) of 0.103 and a relative viability ([1]; first compound 0.02 µM) of 0.106. The relative viability ([1]; first compound 0.06325 µM) was 0.172, the relative viability ([1]; first compound 0.2 µM) was 0.339 and the relative viability ([2]; first compound 0.002 µM) was 0.299. For the same molecule, the relative viability ([2]; first compound 0.006325 µM) was 0.274, the relative viability ([2]; first compound 0.02 µM) was 0.431 and the relative viability ([2]; first compound 0.06325 µM) was 0.0669. The relative viability ([2]; first compound 0.2 µM) was 0.0766, the relative viability ([3]; first compound 0.002 µM) was 0.638 and the relative viability ([3]; first compound 0.006325 µM) was 0.623. The relative viability ([3]; first compound 0.02 µM) was 0.591, the relative viability ([3]; first compound 0.06325 µM) was 0.15 and the relative viability ([3]; first compound 0.2 µM) was 0.117. It also gave a relative viability ([4]; first compound 0.002 µM) of 0.218, a relative viability ([4]; first compound 0.006325 µM) of 0.204 and a relative viability ([4]; first compound 0.02 µM) of 0.151. The relative viability ([4]; first compound 0.06325 µM) was 0.226, the relative viability ([4]; first compound 0.2 µM) was 0.134 and the relative viability ([5]; first compound 0.002 µM) was 0.539. It also gave a relative viability ([5]; first compound 0.006325 µM) of 0.6, a relative viability ([5]; first compound 0.02 µM) of 0.533 and a relative viability ([5]; first compound 0.06325 µM) of 0.5. For the same molecule, the relative viability ([5]; first compound 0.2 µM) was 0.437, the relative viability ([6]; first compound 0.002 µM) was 0.282 and the relative viability ([6]; first compound 0.006325 µM) was 0.296. It also gave a relative viability ([6]; first compound 0.06325 µM) of 0.399, a relative viability ([6]; first compound 0.2 µM) of 0.22 and a relative viability ([7]; first compound 0.002 µM) of 0.248. It also gave a relative viability ([7]; first compound 0.006325 µM) of 0.254, a relative viability ([7]; first compound 0.02 µM) of 0.252 and a relative viability ([7]; first compound 0.06325 µM) of 0.143. It also gave a relative viability ([7]; first compound 0.2 µM) of 0.154, a relative viability ([8]; first compound 0.002 µM) of 0.0938 and a relative viability ([8]; first compound 0.006325 µM) of 0.115. For the same molecule, the relative viability ([8]; first compound 0.02 µM) was 0.104, the relative viability ([8]; first compound 0.06325 µM) was 0.0661 and the relative viability ([8]; first compound 0.2 µM) was 0.0636. It also gave a relative viability ([9]; first compound 0.002 µM) of 0.621, a relative viability ([9]; first compound 0.006325 µM) of 0.545 and a relative viability ([9]; first compound 0.02 µM) of 0.512. The relative viability ([9]; first compound 0.06325 µM) was 0.584, the relative viability ([9]; first compound 0.2 µM) was 0.512 and the relative viability ([10]; first compound 0.002 µM) was 0.184. It also gave a relative viability ([10]; first compound 0.006325 µM) of 0.194, a relative viability ([10]; first compound 0.02 µM) of 0.154 and a relative viability ([10]; first compound 0.06325 µM) of 0.208. The relative viability ([10]; first compound 0.2 µM) was 0.182, the relative viability ([11]; first compound 0.002 µM) was 0.558 and the relative viability ([11]; first compound 0.006325 µM) was 0.501. The relative viability ([11]; first compound 0.02 µM) was 0.518, the relative viability ([11]; first compound 0.06325 µM) was 0.211 and the relative viability ([11]; first compound 0.2 µM) was 0.208. For the same molecule, the relative viability ([12]; first compound 0.002 µM) was 0.812, the relative viability ([12]; first compound 0.006325 µM) was 0.575 and the relative viability ([12]; first compound 0.02 µM) was 0.808. It also gave a relative viability ([12]; first compound 0.06325 µM) of 0.34, a relative viability ([12]; first compound 0.2 µM) of 0.152 and a relative viability ([13]; first compound 0.002 µM) of 0.554. For the same molecule, the relative viability ([13]; first compound 0.006325 µM) was 0.421, the relative viability ([13]; first compound 0.02 µM) was 0.597 and the relative viability ([13]; first compound 0.06325 µM) was 0.0212. For the same molecule, the relative viability ([13]; first compound 0.2 µM) was 0.0218, the relative viability ([14]; first compound 0.002 µM) was 0.585 and the relative viability ([14]; first compound 0.006325 µM) was 0.592. It also gave a relative viability ([14]; first compound 0.02 µM) of 0.646, a relative viability ([14]; first compound 0.06325 µM) of 0.214 and a relative viability ([14]; first compound 0.2 µM) of 0.192. It also gave a relative viability ([15]; first compound 0.002 µM) of 0.345, a relative viability ([15]; first compound 0.006325 µM) of 0.261 and a relative viability ([15]; first compound 0.02 µM) of 0.28. For the same molecule, the relative viability ([15]; first compound 0.06325 µM) was 0.342, the relative viability ([15]; first compound 0.2 µM) was 0.299 and the relative viability ([16]; first compound 0.002 µM) was 0.412. The relative viability ([16]; first compound 0.006325 µM) was 0.455, the relative viability ([16]; first compound 0.02 µM) was 0.168 and the relative viability ([16]; first compound 0.06325 µM) was 0.153. The relative viability ([16]; first compound 0.2 µM) was 0.145, the relative viability ([17]; first compound 0.002 µM) was 0.37 and the relative viability ([17]; first compound 0.006325 µM) was 0.385. It also gave a relative viability ([17]; first compound 0.02 µM) of 0.232, a relative viability ([17]; first compound 0.06325 µM) of 0.465 and a relative viability ([17]; first compound 0.2 µM) of 0.191. For the same molecule, the relative viability ([18]; first compound 0.002 µM) was 1.01, the relative viability ([18]; first compound 0.006325 µM) was 0.766 and the relative viability ([18]; first compound 0.02 µM) was 0.99. The relative viability ([18]; first compound 0.06325 µM) was 0.169, the relative viability ([18]; first compound 0.2 µM) was 0.159 and the relative viability ([19]; first compound 0.002 µM) was 0.959. The relative viability ([19]; first compound 0.006325 µM) was 1.01, the relative viability ([19]; first compound 0.02 µM) was 0.804 and the relative viability ([19]; first compound 0.06325 µM) was 0.876. The relative viability ([19]; first compound 0.2 µM) was 0.657, the relative viability ([20]; first compound 0.002 µM) was 0.261 and the relative viability ([20]; first compound 0.006325 µM) was 0.277. The relative viability ([20]; first compound 0.02 µM) was 0.252, the relative viability ([20]; first compound 0.06325 µM) was 0.176 and the relative viability ([20]; first compound 0.2 µM) was 0.139. For the same molecule, the relative viability ([21]; first compound 0.002 µM) was 0.436, the relative viability ([21]; first compound 0.006325 µM) was 0.389 and the relative viability ([21]; first compound 0.06325 µM) was 0.346. It also gave a relative viability ([21]; first compound 0.2 µM) of 0.165, a relative viability ([22]; first compound 0.002 µM) of 0.23 and a relative viability ([22]; first compound 0.006325 µM) of 0.228. The relative viability ([22]; first compound 0.02 µM) was 0.159, the relative viability ([22]; first compound 0.06325 µM) was 0.186 and the relative viability ([22]; first compound 0.2 µM) was 0.201.
